According to ChEMBL document CHEMBL3826937, “Synthesis, 3D-QSAR analysis and biological evaluation of quinoxaline 1,4-di-N-oxide derivatives as antituberculosis agents” (Bioorg Med Chem Lett, 2016):
≈ marks a conversion by molar mass, not a printed value.

Key:
[1] = test system: Mycobacterium tuberculosis; test: Antimycobacterial activity against Mycobacterium tuberculosis H37Rv ATCC 27294 incubated for 5 days by microplate alamar blue assay; type: functional; settings: H37Rv ATCC 27294, 120 h
[2] = Selectivity index, ratio of CC50 for African green monkey Vero cells to MIC for Mycobacterium tuberculosis H37Rv ATCC 27294; type: toxicity, cell-based; settings: read-out: Selectivity Index
[3] = Cytotoxicity against African green monkey Vero cells assessed as reduction in cell viability after 72 hrs by MTT assay; type: cell-based; settings: chlorocebus sabaeus

SMILES: Cc1c(C(=O)CSCCNC(=O)c2cccs2)[n+]([O-])c2ccccc2[n+]1[O-]
- MIC [1]: 6.25 µg/mL (≈ 15.5 µM)
- selectivity ratio [2]: > 16
- CC50 at 72 h [3]: > 100 µg/mL

SMILES: Cc1c(C(=O)CSc2nc[nH]n2)[n+]([O-])c2ccccc2[n+]1[O-]
- MIC [1]: 0.39 µg/mL (≈ 1.23 µM)
- selectivity ratio [2]: 128
- CC50 at 72 h [3]: 50 µg/mL (≈ 158 µM)

SMILES: CC(=O)NCCSCC(=O)c1c(C)[n+]([O-])c2ccccc2[n+]1[O-]
- MIC [1]: 50 µg/mL (≈ 149 µM)

SMILES: Cc1c(C(=O)CSc2ccc(F)cc2)[n+]([O-])c2ccccc2[n+]1[O-]
- MIC [1]: 0.39 µg/mL (≈ 1.13 µM)
- selectivity ratio [2]: 128
- CC50 at 72 h [3]: 50 µg/mL (≈ 145 µM)

SMILES: Cc1c(C(=O)CN(C)C2CCCCC2)[n+]([O-])c2ccccc2[n+]1[O-]
- MIC [1]: 50 µg/mL (≈ 152 µM)

SMILES: Cc1ccc(SCC(=O)c2c(C)[n+]([O-])c3ccccc3[n+]2[O-])cc1
- MIC [1]: 0.78 µg/mL (≈ 2.29 µM)
- selectivity ratio [2]: 64
- CC50 at 72 h [3]: 50 µg/mL (≈ 147 µM)

SMILES: Cc1c(C(=O)CSCCNC(=O)C2CCCCC2)[n+]([O-])c2ccccc2[n+]1[O-]
- MIC [1]: 12.5 µg/mL (≈ 31 µM)

SMILES: Cc1c(C(=O)CSc2nc3ccccc3o2)[n+]([O-])c2ccccc2[n+]1[O-]
- MIC [1]: 3.13 µg/mL (≈ 8.52 µM)
- selectivity ratio [2]: 16
- CC50 at 72 h [3]: 50 µg/mL (≈ 136 µM)

SMILES: COc1ccc(SCC(=O)c2c(C)[n+]([O-])c3ccccc3[n+]2[O-])cc1
- MIC [1]: 0.78 µg/mL (≈ 2.19 µM)
- selectivity ratio [2]: 64
- CC50 at 72 h [3]: 50 µg/mL (≈ 140 µM)

SMILES: Cc1c(C(=O)CN(C)c2ccc(F)cc2)[n+]([O-])c2ccccc2[n+]1[O-]
- MIC [1]: 6.25 µg/mL (≈ 18.3 µM)
- selectivity ratio [2]: > 16
- CC50 at 72 h [3]: > 100 µg/mL

SMILES: Cc1c(C(=O)CSCCNC(=O)c2ccc3ccccc3c2)[n+]([O-])c2ccccc2[n+]1[O-]
- MIC [1]: 6.25 µg/mL (≈ 14 µM)
- selectivity ratio [2]: > 16
- CC50 at 72 h [3]: > 100 µg/mL

SMILES: Cc1c(C(=O)CSCCNC(=O)c2ccncc2)[n+]([O-])c2ccccc2[n+]1[O-]
- MIC [1]: 6.25 µg/mL (≈ 15.7 µM)
- CC50 at 72 h [3]: 50 µg/mL (≈ 125 µM)

SMILES: Cc1c(C(=O)CSCCO)[n+]([O-])c2ccccc2[n+]1[O-]
- MIC [1]: 50 µg/mL (≈ 170 µM)

SMILES: Cc1c(C(=O)CSCCN)[n+]([O-])c2ccccc2[n+]1[O-]
- MIC [1]: 50 µg/mL (≈ 170 µM)

SMILES: Cc1c(C(=O)CNc2nc3ccccc3[nH]2)[n+]([O-])c2ccccc2[n+]1[O-]
- MIC [1]: 12.5 µg/mL (≈ 35.8 µM)

SMILES: Cc1c(C(=O)CSc2nc3ccccc3s2)[n+]([O-])c2ccccc2[n+]1[O-]
- MIC [1]: 1.56 µg/mL (≈ 4.07 µM)
- selectivity ratio [2]: 32
- CC50 at 72 h [3]: 50 µg/mL (≈ 130 µM)

SMILES: Cc1c(C(=O)CSCCNC(=O)c2ccc(F)cc2)[n+]([O-])c2ccccc2[n+]1[O-]
- MIC [1]: 1.56 µg/mL (≈ 3.76 µM)
- selectivity ratio [2]: > 128
- CC50 at 72 h [3]: > 100 µg/mL

SMILES: Cc1c(C(=O)CSc2nccs2)[n+]([O-])c2ccccc2[n+]1[O-]
- MIC [1]: 3.13 µg/mL (≈ 9.39 µM)
- selectivity ratio [2]: 16
- CC50 at 72 h [3]: 50 µg/mL (≈ 150 µM)

SMILES: Cc1ccc(N(C)CC(=O)c2c(C)[n+]([O-])c3ccccc3[n+]2[O-])cc1
- MIC [1]: 25 µg/mL (≈ 74.1 µM)

SMILES: Cc1c(C(=O)CSc2ccccc2)[n+]([O-])c2ccccc2[n+]1[O-]
- MIC [1]: 1.56 µg/mL (≈ 4.78 µM)
- selectivity ratio [2]: 32
- CC50 at 72 h [3]: 50 µg/mL (≈ 153 µM)

SMILES: COc1ccc(C(=O)NCCSCC(=O)c2c(C)[n+]([O-])c3ccccc3[n+]2[O-])cc1
- MIC [1]: 3.13 µg/mL (≈ 7.32 µM)
- selectivity ratio [2]: > 32
- CC50 at 72 h [3]: > 100 µg/mL

SMILES: CCN(CC)CC(=O)c1c(C)[n+]([O-])c2ccccc2[n+]1[O-]
- MIC [1]: 50 µg/mL (≈ 173 µM)

SMILES: Cc1c(C(=O)CN2CCN(C)CC2)[n+]([O-])c2ccccc2[n+]1[O-]
- MIC [1]: 50 µg/mL (≈ 158 µM)

SMILES: Cc1c(C(=O)CNc2nccs2)[n+]([O-])c2ccccc2[n+]1[O-]
- MIC [1]: 50 µg/mL (≈ 158 µM)

SMILES: Cc1c(C(=O)CSCCNC(=O)[C@@H](N)Cc2ccc(O)cc2)[n+]([O-])c2ccccc2[n+]1[O-]
- MIC [1]: 25 µg/mL (≈ 54.8 µM)

SMILES: Cc1c(C(=O)CN(C)c2ccccc2)[n+]([O-])c2ccccc2[n+]1[O-]
- MIC [1]: 25 µg/mL (≈ 77.3 µM)

SMILES: Cc1c(C(=O)CSc2nc3ccccc3[nH]2)[n+]([O-])c2ccccc2[n+]1[O-]
- MIC [1]: 6.25 µg/mL (≈ 17.1 µM)
- selectivity ratio [2]: 16
- CC50 at 72 h [3]: 100 µg/mL (≈ 273 µM)

SMILES: Cc1c(C(=O)CSCCNC(=O)[C@@H](N)Cc2c[nH]c3ccccc23)[n+]([O-])c2ccccc2[n+]1[O-]
- MIC [1]: 6.25 µg/mL (≈ 13 µM)
- selectivity ratio [2]: > 16
- CC50 at 72 h [3]: > 100 µg/mL

SMILES: Cc1c(C(=O)CSCCNC(=O)c2ccccc2)[n+]([O-])c2ccccc2[n+]1[O-]
- MIC [1]: 6.25 µg/mL (≈ 15.7 µM)
- selectivity ratio [2]: > 16
- CC50 at 72 h [3]: > 100 µg/mL

SMILES: Cc1c(C(=O)CN2CCCCC2)[n+]([O-])c2ccccc2[n+]1[O-]
- MIC [1]: 25 µg/mL (≈ 83 µM)

SMILES: Cc1c(C(=O)CSCCNC(=O)[C@@H](N)C(C)C)[n+]([O-])c2ccccc2[n+]1[O-]
- MIC [1]: 25 µg/mL (≈ 63.7 µM)

SMILES: Cc1c(C(=O)CN(C)Cc2ccccc2)[n+]([O-])c2ccccc2[n+]1[O-]
- MIC [1]: 50 µg/mL (≈ 148 µM)

SMILES: COc1cc(C(=O)NCCSCC(=O)c2c(C)[n+]([O-])c3ccccc3[n+]2[O-])cc(OC)c1OC
- MIC [1]: 25 µg/mL (≈ 51.3 µM)

SMILES: NNC(=O)c1ccncc1 [ISONIAZID]
- MIC [1]: 0.2 µg/mL (≈ 1.46 µM)
